Experimental data published in US7056908B2, “Pharmaceutical compositions and methods for preventing skin tumor formation and causing regression of existing tumors” (priority 1991, dated 2006).

Columns and labels:
[1] = test system: human bladder carcinoma cells; details: systemic administration at 1/10 or 1/20 the maximum tolerated dose; cited from earlier work
primary keratinocytes [2] = experiment: Cell toxicity by trypan blue exclusion; type: cell-based, mouse
Method: Miscellaneous Assays. Cell toxicity was determined using trypan blue exclusion as a marker for viable cells. Cells growing in 60 mm culture dishes were washed once with PBS, incubated at room temperature with 1 ml 0.4% trypan blue in normal saline (GIBCO, Rockville, Md.), washed twice with PBS, then placed on ice until cells were counted. Protein in cell lysates was determined using a commercial colorimetric assay (Bio-Rad Laboratories, Richmond, Calif.).
Phase-contrast photomicrographs were taken at the indicated times after beginning treatment. Similar results were obtained in three additional experiments. Magnification was ×90.

primary keratinocytes [3] = experiment: Ornithine decarboxylase activity in primary keratinocytes; type: cell-based, mouse; details: 5 hours exposure
Method: Enzyme Assays. Activity of epidermal transglutaminase was determined by measuring cross-linking of ^3H-putrescine to dimethylcasein (20). Cell lysates were incubated at […] for 10 minutes to inactivate tissue transglutaminase. Ornithine decarboxylase activity of cell lysates was determined by quantifying release of ^14CO2 from ^14C-ornithine (Sako, T. et al, “Partial parallelism and partial blockade by bryostatin 1 of effects of phorbol ester tumor promoters on primary mouse epidermal cells,” Cancer Res., 47: 5445–5450, 1987).
Each point is the mean for four dishes±standard error of the mean from one experiment. Similar results were obtained in an additional experiment. As with staurosporine-mediated induction of transglutaminase, this response is restricted to a narrow dose range between 5 and 10 nM.

[4] = test system: grafted SP-1 mouse papilloma cells; experiment: Tumor formation from grafted SP-1 papilloma cells on nude mice, topical treatment; type: in vivo; details: 6.25 nmoles/treatment
Method: For grafting, BALB/c-derived nude mice, approximately two months-old, were used as hosts. Animals were anesthetized with Nembutal and sterile surgical technique was used. 0.5×10^6 SP-1 or 308 cells were grafted along with 6–8×10^6 primary SENCAR mouse dermal fibroblasts. […] Cells were removed from culture dishes by treatment with 0.25% trypsin-0.01% EDTA for approximately 10 min. at 36° and washed with medium. Suspensions of papilloma cells and primary dermal fibroblasts were centrifuged 5 min. at 1000 rpm, the medium aspirated, and the cell pellet applied to the graft bed using a sterile plastic transfer pipet. Graft tumors were measured weekly, using calipers, starting three weeks after grafting and for at least 5 additional weeks thereafter. As an approximate tumor volume, the height was multiplied by the smallest and largest lateral measurements. Data are expressed as means i standard error of the mean of approximate tumor volume in mm^3.
Five mice in each group were grafted Feb. 28, 1990 with 0.5×10^6 SP-1 cells+6×10^6 primary SENCAR mouse dermal fibroblasts.
Tumor measurements were begun three weeks after grafting and continued for eight weeks.
Ten mice in each group were grafted Mar. 22, 1990 with 0.5×10^6 SP-1 cells+6×10^6 primary SENCAR mouse dermal fibroblasts.
Ten mice in each group were grafted May 17, 1990 with 0.5×10^6 SP-1 cells+6×10^6 primary SENCAR mouse dermal fibroblasts. […]

c-fos mRNA = c-fos mRNA Northern blot in primary keratinocytes; type: cell-based, mouse; details: for time of maximum c-fos mRNA expression: 8 hour treatment, medium with 0.5% serum
Method: RNA Isolation and Northern Blot Analysis. RNA was isolated by ultracentrifugation of guanidine isothiocyanate lysates through a 5.7M cesium chloride gradient (Chirgwin, J. M. et al, “Isolation of biologically active ribonucleic acid from sources enriched in ribonuclease,” Biochemistry, 18: 5294–5299, 1979). 20 μg of total RNA was loaded per lane and electrophoresed through a 1% agarose gel containing 0.66 M formaldehyde (Davis, L. G. et al, “Basic Methods in Molecular Biology,” New York: Elsevier, 1986). RNA was blotted to reinforced nitrocellulose membrane (BA-S NC; Schleicher & Schuell, Keene, N.H.) and baked at 80° C. in a vacuum oven for 2 hours. Filter were pre-hybridized at 42° overnight in buffer containing 50% formamide as previously described (Yuspa, S. H. et al, “Expression of murine epidermal differentiation markers is tightly regulated by restricted extracellular calcium concentrations in vitro,” J. Cell Biol., 109: 1207–1217, 1989); approximately 20×10^6 dpm of probe was added and hybridization carried out overnight. The final wash performed at 65° using 0.2×SSC with 0.1% SDS. Filters were exposed to Kodak X-Omat AR film at −70° with intensifying screens. Mouse c-fos transcript was detected using a 1.2 kb Bg1 II to Sal I fragment from the Finkel-Biskis-Jinkins murine sarcoma virus sequence (Curran, T. et al, “Structure of the FBJ murine osteosarcoma virus genome: molecular cloning of the associated helper virus and the cellular homologue of the v-fos gene from mouse and human cells,” Mol. Cell. Biol., 3: 914–921, 1983). Following autoradiography, remaining probe was removed by washing in 1% glycerol in deionized water at 80° for 2 minutes (Davis, L. G. et al, “Basic Methods in Molecular Biology,” New York: Elsevier, 1986) and the filter was re-hybridized to a full-length rat glyceraldehyde phosphate dehydrogenase (GAPDH) cDNA in a pUC18 vector (Fort, P. et al, “Various rat adult tissues express only one major mRNA species from the glyceraldehydes-3-phosphate-dehydrogenase multigenic family,” Nucleic. Acids. Res., 13: 1431–1442, 1985). […]

primary keratinocytes [5] = experiment: Cornified envelope formation in primary keratinocytes; type: cell-based, mouse; details: 10 nM staurosporine or 160 nM TPA for 24 hours; 7 day old cultures
Method: Cornified Envelope Quantitation. Keratinocytes were analyzed for cornified envelope formation as described (Nagae, S. et al, “Effect of retinoic acid on cornified envelope formation: difference between spontaneous envelope formation in vivo or in vitro and expression of envelope competence,” J. Invest., Dermatol., 89: 51–58, 1987), with minor modifications. Floating cells were harvested by collecting culture medium from each 60 mm dish and combining with two washes using phosphate-buffered saline without Ca^2+ and Ms^+2 (PBS). Cells were pelleted for 5 minutes at 1000 rpm in a benchtop clinical centrifuge and resuspended in 100 μl of lysis buffer (2% sodium dodecyl sulfate (SDS) and 20 mM dithiothreitol in PBS). Attached cells were harvested in 250 μl lysis buffer, combined with the preparation of floating cells, and incubated at 95° for 10 minutes. The non-solubilized, intact cornified envelopes, characteristic of terminally differentiated keratinocytes, were counted using a hemocytometer (Nagae, S. et al, “Effect of retinoic acid on cornified envelope formation: difference between spontaneous envelope formation in vivo or in vitro and expression of envelope competence,” J. Invest. Dermatol., 89: 51–58, 1987).
Floating and attached cell populations were harvested and cornified envelopes isolated. Data are mean values for three separate dishes±standard error of the mean from one experiment.
7 day old primary keratinocytes were cultured with or without 60 nM bryostatin for 15 hours. […] Each data bar is the average value from duplicate dishes with the range indicated by error bars.

primary keratinocytes [6] = type: cell-based, mouse
Method: EGF binding was assessed in 6-well tissue culture dishes plated at a cell density of 2.5×10^6 cells/well (Strickland, J. E. et al, “Interaction of epidermal growth factor with basal and differentiating epidermal cells of mice resistant and sensitive to carcinogenesis,” Carcinogenesis, 5: 735–740, 1984). […] A second set of cultures received, in addition, 1 μg/ml unlabelled EGF to assess non-specific binding of radioactive ligand. Following the incubation period, cultures were washed 4 times with ice-cold binding buffer, harvested in 1.5 ml lysis buffer (0.1 M tris (pH 7.4), 0.5% SDS, 1 mM EDTA), and radioactivity determined by scintillation counting.
Exposure of a variety of cultured cell types to TPA results in inhibition of EGF binding which is attributed to PKC-mediated phosphorylation of the EGF receptor (Diamond, L., “Tumor promoters and cell transformation,” In: D. Grunberger and S. P. Goff. (eds.), Mechanisms of Cellular Transformation by Carcinogenic Agents, pp. 73–133, New York: Pergamon Press. 1987).
Each point is the mean of trilpicate dishes±standard error of the mean.

| SMILES | retardation of tumor growth [1] | cells trypan blue positive (primary keratinocytes [2]; 7.5 hour exposure to 1 μM staurosporine) | cells that took up trypan blue (primary keratinocytes [2]; ≦10 nM staurosporine) | ornithine decarboxylase activity (primary keratinocytes [3]) | effect of higher doses on papilloma growth [4] | time of maximum c-fos mRNA expression (c-fos mRNA) | c-fos mRNA expression on combined exposure with TPA (c-fos mRNA; staurosporine added just before TPA) | increase in cornified envelopes relative to control cultures (primary keratinocytes [5]) | reduction of 125I-EGF binding relative to controls (primary keratinocytes [6]) |
| --- | --- | --- | --- | --- | --- | --- | --- | --- | --- |
| CN[C@@H]1C[C@H]2O[C@@](C)([C@@H]1OC)n1c3ccccc3c3c4c(c5c6ccccc6n2c5c31)C(=O)NC4 [staurosporine] | approximately 60% | 74% | < 5% | induction of ornithine decarboxylase activity | appear to stimulate papilloma growth | 8 h | higher expression of c-fos MRNA than TPA alone |  |  |
| CCCCCCCCCCCCCC(=O)O[C@@H]1[C@@H](C)[C@@]2(O)[C@@H](C=C(CO)C[C@]3(O)C(=O)C(C)=C[C@@H]23)[C@H]2C(C)(C)[C@]12OC(C)=O [TPA, 12-0-tetradecanoylphorbol-13-acetate, reference compound] |  |  |  |  |  | 6 h |  | 4 fold | 94% |
